How the values were obtained:
ecUlaA [1] = molecular target: T1, ecUlaA (Escherichia coli, UniProt P39301, T86P); assay: isothermal titration calorimetry; format: binding
T1 construct: gene ulaA; homologue genes cloned in pET21b with C-terminal His8, E. coli C43(DE3)

ecUlaA [2] = molecular target: T2, ecUlaA (Escherichia coli, UniProt P39301); assay: isothermal titration calorimetry; conditions: ITC performed as in ref. 11; detergent-purified protein; read-out: binding affinity; cited from earlier work
T2 construct: gene ulaA; homologue genes cloned in pET21b with C-terminal His8, E. coli C43(DE3)

In the case of `O=C1O[C@H]([C@@H](O)CO)C(O)=C1O` [vitamin C], the Kd (ecUlaA [1]) is given as roughly 26.5 µM and the Kd (ecUlaA [2]) is given as 6.1 ± 0.9 µM.
